# Reference: patent US11096916B2, “Use of nicotinic acetylcholine receptor alpha 7 activators” (NOVARTIS AG, priority 2009, dated 2021)
# How the values were obtained:
# human α7-nAChR = molecular target: T1, human α7-nAChR (Homo sapiens, UniProt P36544); experiment: functional assay, calcium influx (FLIPR) in GH3 cells recombinantly expressing human α7-nAChR; assay type: cell-based; conditions: for α7-nAChR activity Efficacy compared to epibatidine (100%): Emax, maximal effect compared to the epibatidine response
# T1 construct: expressed in transfected cells; host or cells: GH3 cells (rat pituitary cell line)
# T1 sequence (P36544 23-502): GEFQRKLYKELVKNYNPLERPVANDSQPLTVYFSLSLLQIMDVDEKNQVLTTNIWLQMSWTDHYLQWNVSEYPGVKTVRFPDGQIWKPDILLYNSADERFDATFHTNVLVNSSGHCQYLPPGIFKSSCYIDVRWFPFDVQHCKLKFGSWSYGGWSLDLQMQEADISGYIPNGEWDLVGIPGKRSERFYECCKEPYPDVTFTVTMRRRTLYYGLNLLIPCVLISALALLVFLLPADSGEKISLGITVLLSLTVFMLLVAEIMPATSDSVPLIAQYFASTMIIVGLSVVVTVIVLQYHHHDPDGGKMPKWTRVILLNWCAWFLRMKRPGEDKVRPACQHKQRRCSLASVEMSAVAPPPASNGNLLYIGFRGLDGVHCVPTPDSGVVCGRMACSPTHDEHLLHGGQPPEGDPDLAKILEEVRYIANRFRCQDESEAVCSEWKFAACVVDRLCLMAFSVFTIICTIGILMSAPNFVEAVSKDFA
# Method: To assess α7-nAChR activity, a functional assay was employed using GH3 cells that recombinantly expressed human α7-nAChR. 50000 cells per well were seeded 72 h prior to the experiment on black 96-well plates (Costar) and incubated at 37° C. in a humidified atmosphere (5% CO2/95% air). On the day of the experiment, medium was removed by flicking the plates and replaced with 100 μl growth medium containing […] Fluo-4, (Molecular Probes) in the presence of 2.5 mM probenecid (Sigma). The cells were incubated at 37° C. in a humidified atmosphere (5% CO2/95% air) for 1 h. Plates were flicked to remove excess of Fluo-4, washed twice with Hepes-buffered salt solution (in mM: NaCl 130, KCl 5.4, CaCl2 2, MgSO4 0.8, NaH2PO4 0.9, glucose 25, Hepes 20, pH 7.4; HBS) and refilled with 100 μl of HBS containing antagonist when appropriate. The incubation in the presence of the antagonist lasted 3-5 minutes. Plates were placed in the cell plate stage of a FLIPR device (fluorescent imaging plate reader, Molecular Devices, Sunnyvale, Calif., USA). After recording of the baseline (laser: excitation 488 nm at 1 W, CCD camera opening of 0.4 seconds) the agonists (50 μl) were added to the cell plate using the FLIPR 96-tip pipettor while simultaneously recording the fluorescence.
# Calcium kinetic data were normalized to the maximal fitted response induced by epibatidine, which is a full agonist at α7-nAChR. Four parameter Hill equations were fitted to the concentration-response. Values of Emax (maximal effect in % compared to the epibatidine response) and EC50 (concentration producing half the maximal effect in μM) were derived from this fit.
# [1] = molecular target: T2, human neuronal nAChR α4β2 (Homo sapiens, UniProt P17787+P43681); experiment: similar functional assay in human epithelial cell line stably expressing human α4β2 subtype; assay type: cell-based; conditions: α7-nAChR against α4β2-nAChR
# T2 construct: expressed in transfected cells; host or cells: human epithelial cell line (named a human embryonic kidney cell line)
# T2 sequence (P43681 29-627 limits assumed): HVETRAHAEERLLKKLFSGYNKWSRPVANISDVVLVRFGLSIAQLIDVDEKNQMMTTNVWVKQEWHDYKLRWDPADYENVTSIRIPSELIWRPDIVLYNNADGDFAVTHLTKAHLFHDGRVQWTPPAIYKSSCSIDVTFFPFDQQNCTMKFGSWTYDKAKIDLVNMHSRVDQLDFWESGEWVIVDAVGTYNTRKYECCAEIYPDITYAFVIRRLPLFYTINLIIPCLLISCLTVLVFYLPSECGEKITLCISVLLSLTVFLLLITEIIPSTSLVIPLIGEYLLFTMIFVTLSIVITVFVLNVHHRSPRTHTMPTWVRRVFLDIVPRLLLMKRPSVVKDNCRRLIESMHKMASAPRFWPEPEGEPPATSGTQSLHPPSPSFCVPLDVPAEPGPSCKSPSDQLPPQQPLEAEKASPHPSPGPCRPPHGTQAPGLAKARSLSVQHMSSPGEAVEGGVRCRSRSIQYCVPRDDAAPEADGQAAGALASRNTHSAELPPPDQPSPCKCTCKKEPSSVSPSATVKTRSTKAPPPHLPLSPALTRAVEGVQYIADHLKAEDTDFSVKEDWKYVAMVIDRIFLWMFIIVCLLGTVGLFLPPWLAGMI
# T2 sequence (P17787 26-502): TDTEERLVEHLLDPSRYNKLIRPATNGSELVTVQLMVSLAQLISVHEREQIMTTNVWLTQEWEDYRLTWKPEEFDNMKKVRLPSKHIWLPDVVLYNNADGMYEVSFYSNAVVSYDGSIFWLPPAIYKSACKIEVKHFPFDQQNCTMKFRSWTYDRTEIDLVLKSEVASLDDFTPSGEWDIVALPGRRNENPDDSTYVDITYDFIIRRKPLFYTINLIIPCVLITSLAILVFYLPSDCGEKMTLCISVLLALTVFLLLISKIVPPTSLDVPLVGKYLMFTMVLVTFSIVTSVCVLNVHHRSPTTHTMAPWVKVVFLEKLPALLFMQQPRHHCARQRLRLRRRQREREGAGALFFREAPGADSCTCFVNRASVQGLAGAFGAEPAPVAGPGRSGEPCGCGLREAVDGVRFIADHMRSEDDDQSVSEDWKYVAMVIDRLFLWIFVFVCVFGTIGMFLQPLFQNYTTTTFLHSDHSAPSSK
# Method: To assess the activity of the compound of the invention on the human neuronal nAChR α4β2, a similar functional assay is carried out using a human epithelial cell line stably expressing the human α4β2 subtype (Michelmore et al., Naunyn-Schmiedeberg's Arch. Pharmacol. (2002) 366, 235).
# [2] = Oral bioavailability and brain penetration in mice; assay type: in vivo; conditions: 30 μmol/kg p.o.
# Method: Compounds were orally (30 μmol/kg) administered. Male mice (30-35 g, OF1/ICstrain) were sacrificed at indicated time points after oral administration. Trunk-blood was collected in EDTA-containing tubes and the brain was removed and immediately frozen on dry ice.
# To 100 μl plasma 10 μl internal standard (1.0 μmol of a compound with solubility and ionization properties similar to test compounds) was added and extracted three times with 500 μl dichloromethane. The combined extracts were then dried under a stream of nitrogen and re-dissolved in 100 μl acetonitrile/water (70% acetonitrile). Brains were weighed and homogenized in water (1:5 w/v). Two 100 μl aliquots of each homogenate+10 μl of internal standard (same standard as used for the plasma samples) were extracted three times with 500 μl dichloromethane and further processed as the plasma samples. Samples were separated on Beckmann high-performance liquid chromatography equipment system with an autosampler (Gilson 233XL).
# The limit of detection (LOD), defined as the lowest concentration of the extracted standard sample with a signal to noise ratio of ˜3.
# mice = experiment: Social Recognition Test in mice; assay type: in vivo, mouse; conditions: oral, familiar partner at 24 h vs time 0
# Method: Social interactions between two experimental animals are influenced by their degree of familiarity: the better they know each other, the less time they spend on mutual scrutiny at each meeting. […] Memory enhancing agents (i.e. oxiracetam) facilitate learning to the extent that the previously met (familiar) partner is still remembered after 24 h, whereas in vehicle treated control animals the memory usually fades after less than 1 hour (Thor and Holloway, 1982) or after 2-3 hours.
# Pairs consisting of one adult and one young mouse were assigned at random to the experimental and control groups. In each pair only the adult mouse was orally treated 1 hour before the trial with either vehicle or the test compound. The duration of active contacts of the adult mouse with the young mouse was manually recorded over a period of 3 min, including the following behavioural, approach-related items: sniffing, nosing, grooming, licking, pawing and playing, anogenital exploration and orientation toward the young mouse; orientation, thereby, was defined as tip of nose of the adult mouse less than approximately 1 cm distant from the young mouse's body.
# Twenty-four hours after the baseline-test, the adults in each treatment group were confronted again with […] the half of the adult animals were put together with the previously encountered (familiar) partner and the other half with another (unfamiliar) young mouse. Again the duration of active approach-behaviours was recorded during a 3-min period. Prior to re-test no oral injection was given.
# In the table the reduction in time scrutinizing the familiar partner at time 24 compared with the familiar partner at time 0 minutes is given (value of zero would signify no reduction).
# parkinsonian primates = experiment: Assessment of antidyskinetic effect in parkinsonian primates (MPTP, levodopa-induced dyskinesia); assay type: in vivo, cynomolgus monkeys (Macaca fascicularis); conditions: for Duration of Levodopa-Response / Mean Dyskinesia Score (total period): five MPTP monkeys
# Method: Female ovariectomized cynomolgus monkeys (Macaca fascicularis) are used in the assessment. The animals can be rendered parkinsonian by continuous infusion of 1-methyl-4-phenyl-1,2,3,6-tetrahydropyridine (MPTP) until they develop a stable parkinsonian syndrome. After recuperation, animals are treated daily with levodopa until clear and reproducible dyskinesias are developed.
# Monkeys are observed through a one-way screen window in their home cage. They are observed and scored repeatedly at baseline and after a standard s.c. dose of levodopa. Locomotor activity is assessed and followed with an electronic monitoring system. Antiparkinsonian responses are evaluated by measuring the locomotor activity and a Parkinson disability scale (see Hadj Tahar A et al, Clin Neuropharmacol 2000; 23:195-202; and Samadi P et al, Neuropharmacology 2003; 45:954-963). Dyskinesias are closely monitored and scored according to a dyskinesia rating scale (also described in Hadj Tahar A et al; and Samadi P et al) every 15 minutes until the end of the effect. The doses of levodopa are chosen to induce motor activation and reproducible dyskinesia but no excessive agitation.
# Monkeys are observed for at least two hours following an oral administration of vehicle. On a subsequent day, the dose of levodopa selected is tested once. The animals are observed (with measures of parkinsonian and dyskinetic scores) for the entire duration of the levodopa effect and are also monitored for locomotor activity. This provides vehicle control values as well as levodopa antiparkinsonian and dyskinesia response data for comparison with combinations of a α7-nAChR agonist/positive allosteric modulator and levodopa. The monkeys are then tested with a α7-nAChR agonist/positive allosteric modulator in combination with a fixed dose of levodopa. A suspension for oral administration of the α7-nAChR agonist/positive allosteric modulator is administered before levodopa. After each dose, the animals are observed (with measures of parkinsonian and dyskinetic scores) for the entire duration of effect and monitored for locomotor activity or any change in behavior (e.g. circling, excitement, lethargy and sleepiness).
# Using this protocol, compound A-1 at a dose of 20 mg/kg was tested. Results based on five monkeys (levodopa/benserazide doses: 22.5/50 mg; 65/50 mg; 30/50 mg; 35/50 mg; and 25/50 mg) are shown in FIGS. 1-4.
# [3] = MPTP monkeys, A-1 20 mg/kg plus levodopa/benserazide, result in words
# [4] = compound A-1 20 mg/kg oral before levodopa/benserazide
# [5] = levodopa/benserazide without compound A-1
SMILES,α7-nAChR activity Efficacy compared to epibatidine (100%) (human α7-nAChR) [%],fold selectivity [1] [fold],Brain (pmoles/g ± SD) ([2]; 0.5 hour) [pmol/g],Brain (pmoles/g ± SD) ([2]; 1 hour) [pmol/g],Brain (pmoles/g ± SD) ([2]; 2 hour) [pmol/g],Brain (pmoles/g ± SD) ([2]; 4 hour) [pmol/g],Brain (pmoles/g ± SD) ([2]; 24 hour) [pmol/g],Brain (pmoles/g ± SD) ([2]; 0.25 hour) [pmol/g],Brain (pmoles/g ± SD) ([2]; 8 hour) [pmol/g],Reduction in time scrutinizing in % ± SEM at 24 h (mice; dose 0.3 mg/kg) [%],also measured
"C[C@H](OC(=O)N[C@@H]1CN2CCC1CC2)c1ccccc1F [A-1, (S)-(1-aza-bicyclo[2.2.2]oct-3-yl)-carbamic acid (S)-1-(2-fluoro-phenyl)-ethyl ester]",83,234,706.3 ± 153.4,573.7 ± 109.3,191.9 ± 34.9,104.6 ± 39.6,9.1 ± 2.7,–,–,–,EC50 (human α7-nAChR; read-out: α7-nAChR activity Potency EC50): 0.1 µM; Brain (pmoles/g ± SD) ([2]; 6 hour): 40.5 ± 12.1 pmol/g; Reduction in time scrutinizing in % ± SEM at 24 h (mice; dose 3 mg/kg): 52 ± 4%; antiparkinsonian activity of levodopa (antiparkinsonian score) (parkinsonian primates; [3]): does not lower; duration of the antiparkinsonian activity of levodopa (parkinsonian primates; [3]): significantly increases; levodopa-induced dyskinesias (parkinsonian primates; [3]): significantly reduces; onset of action of levodopa (Elapsed Time after Levodopa Administration) (parkinsonian primates; [3]): does not delay; Duration of Levodopa-Response (parkinsonian primates; [4]): 265 min; Mean Dyskinesia Score (total period) (parkinsonian primates; [4]): 2.1
"C[C@H]1[C@H](Oc2ccc(-c3ccc4[nH]ccc4c3)nn2)C2CCN1CC2 [B-13, (2S,3R)-3-[6-(1H-indol-5-yl)-pyridazin-3-yloxy]-2-methyl-1-aza-bicyclo[2.2.2]octane]",89,324,2960 ± 706,2940 ± 335,1260 ± 172,379 ± 134,13 ± 4,1884 ± 291,93 ± 30,37 ± 7,Plasma (pmoles/ml ± SD) ([2]; 0.25 hour): 2196 ± 397 pmol/mL; Plasma (pmoles/ml ± SD) ([2]; 0.5 hour): 2265 ± 419 pmol/mL; Plasma (pmoles/ml ± SD) ([2]; 1 hour): 1554 ± 523 pmol/mL; Plasma (pmoles/ml ± SD) ([2]; 2 hour): 1172 ± 252 pmol/mL; Plasma (pmoles/ml ± SD) ([2]; 4 hour): 429 ± 167 pmol/mL; Plasma (pmoles/ml ± SD) ([2]; 8 hour): 80 ± 23 pmol/mL
"c1cc2cc(-c3cnc(O[C@H]4CCN5CCC[C@@H]4C5)nc3)ccc2[nH]1 [C-1, (4S,5R)-4-[5-(1H-indol-5-yl)-pyrimidin-2-yloxy]-1-aza-bicyclo[3.3.1]nonane]",84,388,1405 ± 539,1458 ± 189,1478 ± 259,842 ± 187,–,620 ± 221,362 ± 62,51 ± 3,–
"N[C@@H](Cc1ccc(O)c(O)c1)C(=O)O [levodopa, reference compound]",–,–,–,–,–,–,–,–,–,–,Duration of Levodopa-Response (parkinsonian primates; [5]): 230 min; Mean Dyskinesia Score (total period) (parkinsonian primates; [5]): 2.8
